Columns and labels:
[1] = test system: PDE1; test: PDE1 inhibitory activity; type: biochemical; conditions: in the same concentration (as the PDE4 IC50, 12 nM or less)
Experimental: (§1) A concentration of test compound which inhibits 50% of the metabolic activity of PDE4 was defined as IC50 and calculated for each compound. By applying the above test method and the method described in WO 97/19078, inhibitory activity against PDE1, PDE2, PDE3 and PDE5 was measured similarly.

[2] = biological target: PDE2 (Homo sapiens, UniProt O00408); test: PDE2 inhibitory activity; type: biochemical; conditions: in the same concentration (as the PDE4 IC50, 12 nM or less)
Sequence of PDE2 (O00408 whole entry): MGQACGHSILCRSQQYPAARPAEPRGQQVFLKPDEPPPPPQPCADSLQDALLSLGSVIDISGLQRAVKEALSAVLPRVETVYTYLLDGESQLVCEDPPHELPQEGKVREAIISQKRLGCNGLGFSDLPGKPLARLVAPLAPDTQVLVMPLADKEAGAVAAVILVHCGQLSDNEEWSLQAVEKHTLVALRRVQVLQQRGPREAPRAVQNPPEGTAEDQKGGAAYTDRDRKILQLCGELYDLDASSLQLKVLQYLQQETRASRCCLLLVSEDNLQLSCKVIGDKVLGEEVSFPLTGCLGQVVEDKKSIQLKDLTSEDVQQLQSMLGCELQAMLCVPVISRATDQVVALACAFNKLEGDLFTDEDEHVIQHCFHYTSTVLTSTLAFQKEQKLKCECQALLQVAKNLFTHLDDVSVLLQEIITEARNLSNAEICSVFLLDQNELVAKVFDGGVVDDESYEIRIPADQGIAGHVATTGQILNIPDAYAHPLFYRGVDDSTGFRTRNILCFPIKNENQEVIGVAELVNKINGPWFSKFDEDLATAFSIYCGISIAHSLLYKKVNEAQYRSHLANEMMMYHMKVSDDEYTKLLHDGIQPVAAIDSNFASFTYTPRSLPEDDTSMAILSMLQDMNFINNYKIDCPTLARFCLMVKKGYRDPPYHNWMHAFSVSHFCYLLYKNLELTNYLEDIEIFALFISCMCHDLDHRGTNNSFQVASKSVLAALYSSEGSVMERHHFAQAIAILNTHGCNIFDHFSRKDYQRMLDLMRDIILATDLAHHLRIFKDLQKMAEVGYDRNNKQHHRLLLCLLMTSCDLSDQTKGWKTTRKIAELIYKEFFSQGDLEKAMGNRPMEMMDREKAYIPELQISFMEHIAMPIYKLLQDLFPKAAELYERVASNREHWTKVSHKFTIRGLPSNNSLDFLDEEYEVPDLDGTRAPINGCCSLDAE
Experimental: as §1

[3] = test system: PDE3; test: PDE3 inhibitory activity; type: biochemical; conditions: in the same concentration (as the PDE4 IC50, 12 nM or less)
Experimental: as §1

[4] = biological target: PDE5 (Homo sapiens, UniProt O76074); test: PDE5 inhibitory activity; type: biochemical; conditions: in the same concentration (as the PDE4 IC50, 12 nM or less)
Experimental: as §1

For `COc1ccc(-c2cccc(C(=O)N3CCN(c4ccc(OCc5cc[n+]([O-])cc5)cc4)CC3)n2)cc1OC` [Example 10, 1-[6-(3,4-dimethoxyphenyl)pyridine-2-carbonyl]-4-[4-(1-oxido-4-pyridylmethoxy)phenyl]piperazine], the “inhibitory activity against PDE1” value [1] was “hardly exhibited inhibitory activity”, the “inhibitory activity against PDE2” value [2] was “hardly exhibited inhibitory activity” and the “inhibitory activity against PDE3” value [3] was “hardly exhibited inhibitory activity”. For the same compound, the “inhibitory activity against PDE5” value [4] was “hardly exhibited inhibitory activity” and the melting point was 182 to 183 °C.

For “4-{2-[(6-{4-]6-(3,4-dimethoxyphenyl)pyridine-2-carbonyl)piperazin-1-yl}-3-pyridyl}oxylethyl)morpholine [Example 99]”, the “inhibitory activity against PDE1” value [1] was “hardly exhibited inhibitory activity”, the “inhibitory activity against PDE2” value [2] was “hardly exhibited inhibitory activity” and the “inhibitory activity against PDE3” value [3] was “hardly exhibited inhibitory activity”. The “inhibitory activity against PDE5” value [4] was “hardly exhibited inhibitory activity”.

For `COc1ccc(-c2cccc(C(=O)N3CCN(c4ccc(OCCN5CCC(O)CC5)cc4)CC3)n2)cc1OC` [Example 95, 1-[2-(4-{4-[6-(3,4-dimethoxyphenyl)pyridine-2-carbonyl]piperazin-1-yl}phenoxy)ethyl]piperidin-4-ol], the “inhibitory activity against PDE1” value [1] was “hardly exhibited inhibitory activity”, the “inhibitory activity against PDE2” value [2] was “hardly exhibited inhibitory activity” and the “inhibitory activity against PDE3” value [3] was “hardly exhibited inhibitory activity”. For the same compound, the “inhibitory activity against PDE5” value [4] was “hardly exhibited inhibitory activity” and the melting point was 143 to 144 °C.

Compound `COc1ccc(-c2cccc(C(=O)N3CCN(c4ccc(NS(C)(=O)=O)cc4)CC3)n2)cc1OC` [Example 16, 4′-{4-[6-(3,4-dimethoxyphenyl)pyridine-2-carbonyl]piperazin-1-yl}methanesulfonanilide] has a melting point of 168 to 170 °C.

In the case of `COc1ccc(-c2cccc(C(=O)N3CCN(c4ccc(N)cc4)CC3)n2)cc1OC` [Example 9, 1-[6-(3,4-dimethoxyphenyl)pyridine-2-carbonyl]-4-(4-aminophenyl) piperazine], the melting point is reported as 164 to 165 °C.

In the case of `COc1ccc(-c2cccc(C(=O)N3CCN(c4ccc(C(C)=O)cc4)CC3)n2)cc1OC` [Example 32], the “inhibitory activity against PDE1” value [1] is reported as “hardly exhibited inhibitory activity”, the “inhibitory activity against PDE2” value [2] is reported as “hardly exhibited inhibitory activity” and the “inhibitory activity against PDE3” value [3] is reported as “hardly exhibited inhibitory activity”. For the same compound, the “inhibitory activity against PDE5” value [4] was “hardly exhibited inhibitory activity” and the melting point was 161 to 163 °C.

Compound `COc1ccc(-c2cccc(C(=O)N3CCN(c4ccc(C(C)=O)cc4)CC3)n2)cc1OCC1CC1` (hydrate or solvate) [Example 112, 1-(4-{4-[6-(3-cyclopropylmethoxy-4-methoxyphenyl)pyridine-2-carbonyl]piperazin-1-yl}phenyl)ethanone] has a melting point of 142 to 144 °C.

With `COc1ccc(-c2cccc(C(=O)N3CCN(c4ccc(C(C)=O)cc4)CC3)n2)cc1OCC1CC1` [Example 112, 1-(4-{4-[6-(3-cyclopropylmethoxy-4-methoxyphenyl)pyridine-2-carbonyl]piperazin-1-yl}phenyl)ethanone] the “inhibitory activity against PDE1” value [1] was “hardly exhibited inhibitory activity”, the “inhibitory activity against PDE2” value [2] was “hardly exhibited inhibitory activity” and the “inhibitory activity against PDE3” value [3] was “hardly exhibited inhibitory activity”. For the same compound, the “inhibitory activity against PDE5” value [4] was “hardly exhibited inhibitory activity”.

With `COc1ccc(-c2cccc(C(=O)N3CCN(c4ccc(C(N)=O)cc4)CC3)n2)cc1OC` [Example 12, 4-{4-[6-(3,4-dimethoxyphenyl)pyridine-2-carbonyl]piperazin-1-yl}benzamide] the melting point was 237 to 240 °C.

In the case of `COc1ccc(-c2cccc(C(=O)N3CCN(c4ccc(C(C)=O)cc4)CC3)n2)cc1OC(F)F` [Example 114], the melting point is reported as 160 to 162 °C.

For `COc1ccc(-c2cccc(C(=O)N3CCN(c4ccc(NC(C)=O)cc4)CC3)n2)cc1OC` [Example 43, 4′-{4-[6-(3,4-dimethoxyphenyl)pyridine-2-carbonyl]piperazin-1-yl}acetanilide], the “inhibitory activity against PDE1” value [1] was “hardly exhibited inhibitory activity”, the “inhibitory activity against PDE2” value [2] was “hardly exhibited inhibitory activity” and the “inhibitory activity against PDE3” value [3] was “hardly exhibited inhibitory activity”. For the same compound, the “inhibitory activity against PDE5” value [4] was “hardly exhibited inhibitory activity” and the melting point was 201 to 203 °C.

Compound `COc1ccc(-c2cccc(C(=O)N3CCN(c4ccc(C(C)=O)cc4)CC3)n2)cc1Cl` [Example 113] has a melting point of 168 to 170 °C.

Compound `COc1ccc(-c2cccc(C(=O)N3CCN(c4ccc(C(C)=O)cc4)CC3)n2)cc1F` [Example 115] has a melting point of 168 to 170 °C.

With `COc1ccc(-c2cccc(C(=O)N3CCN(c4cccc(Br)n4)CC3)n2)cc1OC` [Example 77, 1-(6-bromo-2-pyridyl)-4-[6-(3,4-dimethoxyphenyl)pyridine-2-carbonyl]piperazine] the “inhibitory activity against PDE1” value [1] was “hardly exhibited inhibitory activity”, the “inhibitory activity against PDE2” value [2] was “hardly exhibited inhibitory activity” and the “inhibitory activity against PDE3” value [3] was “hardly exhibited inhibitory activity”. The “inhibitory activity against PDE5” value [4] was “hardly exhibited inhibitory activity” and the melting point was 144 to 145 °C.

For `COc1ccc(-c2cccc(C(=O)N3CCN(c4ccc(N5CCOCC5)cc4)CC3)n2)cc1OC` [Example 15, 4-(4-{4-[6-(3,4-dimethoxyphenyl)pyridine-2-carbonyl]piperazin-1-yl)phenyl)morpholine], the “inhibitory activity against PDE1” value [1] was “hardly exhibited inhibitory activity”, the “inhibitory activity against PDE2” value [2] was “hardly exhibited inhibitory activity” and the “inhibitory activity against PDE3” value [3] was “hardly exhibited inhibitory activity”. For the same compound, the “inhibitory activity against PDE5” value [4] was “hardly exhibited inhibitory activity” and the melting point was 129 to 130 °C.

In the case of `CCN(CC)CCC(=O)Nc1ccc(N2CCN(C(=O)c3cccc(-c4ccc(OC)c(OC)c4)n3)CC2)cc1` [Example 45, 3-diethylamino-4′-{4-[6-(3,4-dimethoxyphenyl)pyridine-2-carbonyl]piperazin-1-yl}propananilide], the “inhibitory activity against PDE1” value [1] is reported as “hardly exhibited inhibitory activity”, the “inhibitory activity against PDE2” value [2] is reported as “hardly exhibited inhibitory activity” and the “inhibitory activity against PDE3” value [3] is reported as “hardly exhibited inhibitory activity”. The “inhibitory activity against PDE5” value [4] was “hardly exhibited inhibitory activity” and the melting point was 131 to 134 °C.

For `COc1ccc(N2CCN(C(=O)c3cccc(-c4ccc(OC)c(OC)c4)n3)CC2)cc1` [Example 2, 1-[6-(3,4-dimethoxyphenyl)pyridine-2-carbonyl]-4-(4-methoxyphenyl)piperazine], the “inhibitory activity against PDE1” value [1] was “hardly exhibited inhibitory activity”, the “inhibitory activity against PDE2” value [2] was “hardly exhibited inhibitory activity” and the “inhibitory activity against PDE3” value [3] was “hardly exhibited inhibitory activity”. For the same compound, the “inhibitory activity against PDE5” value [4] was “hardly exhibited inhibitory activity” and the melting point was 169 to 172 °C.

Source: US7196080B2, “Phenylpyridinecarbonylpiperazinederivative” (Astellas Pharma Inc., priority 2001, dated 2007)
